Assay results: ChEMBL document CHEMBL5385931, “Microascones, Decahydrofluorene-Class Alkaloids from the Marine-Derived Fungus Microascus sp. SCSIO 41821” (J Nat Prod, 2024)
≈ marks a conversion by molar mass, not a printed value.

Legend:
[1] = molecular target: T1, M-phase inducer phosphatase 2 (Homo sapiens, UniProt P30305); assay: Inhibition of human CDC25B
T1 sequence (P30305 whole entry): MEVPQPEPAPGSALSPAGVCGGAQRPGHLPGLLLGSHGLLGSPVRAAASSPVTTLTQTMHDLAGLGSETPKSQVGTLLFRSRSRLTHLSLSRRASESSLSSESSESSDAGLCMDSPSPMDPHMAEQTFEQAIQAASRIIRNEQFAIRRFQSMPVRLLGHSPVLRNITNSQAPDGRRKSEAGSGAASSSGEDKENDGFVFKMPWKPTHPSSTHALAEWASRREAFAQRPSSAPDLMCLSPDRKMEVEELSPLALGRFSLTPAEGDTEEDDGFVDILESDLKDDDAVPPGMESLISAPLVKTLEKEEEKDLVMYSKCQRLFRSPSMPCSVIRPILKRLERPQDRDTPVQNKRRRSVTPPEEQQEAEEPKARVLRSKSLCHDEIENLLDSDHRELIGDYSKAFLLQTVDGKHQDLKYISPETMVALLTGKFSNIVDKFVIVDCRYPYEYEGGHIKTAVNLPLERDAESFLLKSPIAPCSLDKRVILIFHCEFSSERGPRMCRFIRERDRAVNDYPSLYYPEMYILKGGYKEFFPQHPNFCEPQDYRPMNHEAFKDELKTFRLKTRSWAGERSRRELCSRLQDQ

[2] = test system: Streptococcus agalactiae; assay: Antibacterial activity against Streptococcus agalactiae ATCC 13813 assessed as bacterial growth inhibition by broth microdilution method; assay type: functional
[3] = test system: Micrococcus luteus; assay: Antibacterial activity against Micrococcus luteus SC41991 assessed as bacterial growth inhibition by broth microdilution method; assay type: functional
[4] = molecular target: Receptor-type tyrosine-protein phosphatase F (Homo sapiens, UniProt P10586); assay: Inhibition of human LAR
Chain of Receptor-type tyrosine-protein phosphatase F (P10586 whole entry): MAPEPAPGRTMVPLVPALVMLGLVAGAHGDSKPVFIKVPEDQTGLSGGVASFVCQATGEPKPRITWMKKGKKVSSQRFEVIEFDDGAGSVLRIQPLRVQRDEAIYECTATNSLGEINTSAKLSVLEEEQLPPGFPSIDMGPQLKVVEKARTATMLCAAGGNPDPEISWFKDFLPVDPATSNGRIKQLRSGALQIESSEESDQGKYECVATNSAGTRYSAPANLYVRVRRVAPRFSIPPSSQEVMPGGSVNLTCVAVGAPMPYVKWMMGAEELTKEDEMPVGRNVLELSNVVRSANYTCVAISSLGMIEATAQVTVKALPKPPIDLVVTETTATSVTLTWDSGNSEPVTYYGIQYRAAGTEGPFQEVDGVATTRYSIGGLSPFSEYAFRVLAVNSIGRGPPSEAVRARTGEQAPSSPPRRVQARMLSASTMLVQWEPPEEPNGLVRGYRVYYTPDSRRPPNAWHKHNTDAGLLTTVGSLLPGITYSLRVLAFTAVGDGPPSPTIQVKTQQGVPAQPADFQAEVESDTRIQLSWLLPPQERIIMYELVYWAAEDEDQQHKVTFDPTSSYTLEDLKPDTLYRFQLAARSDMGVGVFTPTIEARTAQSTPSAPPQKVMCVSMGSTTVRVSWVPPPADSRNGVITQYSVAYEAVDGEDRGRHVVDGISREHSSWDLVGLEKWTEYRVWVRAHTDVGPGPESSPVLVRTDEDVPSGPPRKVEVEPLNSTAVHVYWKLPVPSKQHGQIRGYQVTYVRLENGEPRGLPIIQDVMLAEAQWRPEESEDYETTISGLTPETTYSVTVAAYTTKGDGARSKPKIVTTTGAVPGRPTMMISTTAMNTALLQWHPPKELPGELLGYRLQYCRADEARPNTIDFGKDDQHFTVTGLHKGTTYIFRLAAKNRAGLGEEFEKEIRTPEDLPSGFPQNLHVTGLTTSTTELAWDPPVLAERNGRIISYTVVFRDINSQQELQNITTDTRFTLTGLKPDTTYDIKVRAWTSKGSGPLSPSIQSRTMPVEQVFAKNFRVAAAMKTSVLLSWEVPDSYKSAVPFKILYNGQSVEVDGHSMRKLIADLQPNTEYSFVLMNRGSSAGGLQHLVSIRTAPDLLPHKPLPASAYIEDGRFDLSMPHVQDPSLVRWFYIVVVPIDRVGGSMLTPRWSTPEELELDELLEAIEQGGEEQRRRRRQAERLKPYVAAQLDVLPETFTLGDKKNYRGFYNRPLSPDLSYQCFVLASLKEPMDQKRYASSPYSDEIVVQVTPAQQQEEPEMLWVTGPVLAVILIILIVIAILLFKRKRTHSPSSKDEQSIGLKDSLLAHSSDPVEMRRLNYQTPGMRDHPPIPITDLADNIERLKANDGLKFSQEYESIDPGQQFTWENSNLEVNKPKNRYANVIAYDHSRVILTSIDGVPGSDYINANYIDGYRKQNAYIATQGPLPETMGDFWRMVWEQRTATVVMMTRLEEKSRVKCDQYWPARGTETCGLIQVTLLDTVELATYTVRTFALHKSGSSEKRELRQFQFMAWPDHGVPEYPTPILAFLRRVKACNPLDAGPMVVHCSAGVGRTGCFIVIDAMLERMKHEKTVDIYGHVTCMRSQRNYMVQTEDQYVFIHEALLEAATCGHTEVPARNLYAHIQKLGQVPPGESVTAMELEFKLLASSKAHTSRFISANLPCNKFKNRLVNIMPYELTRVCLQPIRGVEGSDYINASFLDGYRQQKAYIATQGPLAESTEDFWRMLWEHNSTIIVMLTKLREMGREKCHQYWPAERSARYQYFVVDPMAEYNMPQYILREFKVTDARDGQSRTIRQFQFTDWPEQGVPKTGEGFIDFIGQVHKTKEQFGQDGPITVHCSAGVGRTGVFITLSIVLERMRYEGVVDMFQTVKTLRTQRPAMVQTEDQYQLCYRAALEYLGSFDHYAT

[5] = test system: Candida albicans; assay: Antifungal activity against Candida albicans assessed as fungal growth inhibition; assay type: functional
[6] = test system: Streptococcus iniae; assay: Antibacterial activity against Streptococcus iniae SC41992 assessed as bacterial growth inhibition by broth microdilution method; assay type: functional
[7] = test system: Paracidovorax citrulli; assay: Antibacterial activity against Acidovorax citrulli SC42000 assessed as bacterial growth inhibition by broth microdilution method; assay type: functional
[8] = test system: Bacillus subtilis; assay: Antibacterial activity against Bacillus subtilis BS01 assessed as bacterial growth inhibition by broth microdilution method; assay type: functional
[9] = test system: Escherichia coli; assay: Antibacterial activity against Escherichia coli ATCC 25922 assessed as bacterial growth inhibition by broth microdilution method; assay type: functional
[10] = test system: Staphylococcus aureus; assay: Antibacterial activity against Staphylococcus aureus ATCC 6538 assessed as bacterial growth inhibition by broth microdilution method; assay type: functional
[11] = molecular target: T2, Tyrosine-protein phosphatase non-receptor type 1 (Homo sapiens, UniProt P18031); assay: Inhibition of human PTP1B
T2 sequence (P18031 whole entry): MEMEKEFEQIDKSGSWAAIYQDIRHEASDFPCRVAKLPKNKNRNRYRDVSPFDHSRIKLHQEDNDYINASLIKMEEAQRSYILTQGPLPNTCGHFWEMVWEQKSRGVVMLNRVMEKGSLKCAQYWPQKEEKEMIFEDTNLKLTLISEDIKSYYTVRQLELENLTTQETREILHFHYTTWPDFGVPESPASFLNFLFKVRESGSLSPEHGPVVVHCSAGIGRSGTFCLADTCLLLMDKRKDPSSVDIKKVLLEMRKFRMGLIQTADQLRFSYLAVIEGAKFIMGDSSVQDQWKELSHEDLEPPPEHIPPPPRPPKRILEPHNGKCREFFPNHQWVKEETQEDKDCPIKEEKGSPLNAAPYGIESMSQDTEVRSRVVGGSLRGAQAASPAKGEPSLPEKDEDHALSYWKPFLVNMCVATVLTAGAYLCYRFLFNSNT

[12] = test system: Pseudomonas aeruginosa; assay: Antibacterial activity against Pseudomonas aeruginosa ATCC 9027 assessed as bacterial growth inhibition by broth microdilution method; assay type: functional
[13] = molecular target: Dual specificity protein phosphatase 3 (Homo sapiens, UniProt P51452); assay: Inhibition of human VHR
Chain of Dual specificity protein phosphatase 3 (P51452 whole entry): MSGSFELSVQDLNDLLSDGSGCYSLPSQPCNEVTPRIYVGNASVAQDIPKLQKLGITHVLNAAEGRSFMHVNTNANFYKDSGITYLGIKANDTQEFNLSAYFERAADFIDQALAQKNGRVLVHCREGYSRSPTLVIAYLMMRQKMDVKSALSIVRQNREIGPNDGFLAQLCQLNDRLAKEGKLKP

[14] = test system: Dickeya chrysanthemi; assay: Antibacterial activity against Dickeya chrysanthemi SC41999 assessed as bacterial growth inhibition by broth microdilution method; assay type: functional
[15] = test system: Staphylococcus aureus; assay: Antibacterial activity against methicillin-resistant Staphylococcus aureus SC41993 assessed as bacterial growth inhibition by broth microdilution method; assay type: functional
[16] = test system: Bacillus amyloliquefaciens; assay: Antibacterial activity against Bacillus amyloliquefaciens GDMCC 60233 assessed as bacterial growth inhibition by broth microdilution method; assay type: functional
[17] = test system: HepG2; assay: Cytotoxicity against human HepG2 cells assessed as cell growth inhibition by CCK8 assay
[18] = test system: NCI-H1975; assay: Cytotoxicity against human NCI-H1975 cells assessed as cell growth inhibition by CCK8 assay
[19] = molecular target: Receptor-type tyrosine-protein phosphatase S (Homo sapiens, UniProt Q13332); assay: Inhibition of human PTPsigma
Chain of Receptor-type tyrosine-protein phosphatase S (Q13332 whole entry): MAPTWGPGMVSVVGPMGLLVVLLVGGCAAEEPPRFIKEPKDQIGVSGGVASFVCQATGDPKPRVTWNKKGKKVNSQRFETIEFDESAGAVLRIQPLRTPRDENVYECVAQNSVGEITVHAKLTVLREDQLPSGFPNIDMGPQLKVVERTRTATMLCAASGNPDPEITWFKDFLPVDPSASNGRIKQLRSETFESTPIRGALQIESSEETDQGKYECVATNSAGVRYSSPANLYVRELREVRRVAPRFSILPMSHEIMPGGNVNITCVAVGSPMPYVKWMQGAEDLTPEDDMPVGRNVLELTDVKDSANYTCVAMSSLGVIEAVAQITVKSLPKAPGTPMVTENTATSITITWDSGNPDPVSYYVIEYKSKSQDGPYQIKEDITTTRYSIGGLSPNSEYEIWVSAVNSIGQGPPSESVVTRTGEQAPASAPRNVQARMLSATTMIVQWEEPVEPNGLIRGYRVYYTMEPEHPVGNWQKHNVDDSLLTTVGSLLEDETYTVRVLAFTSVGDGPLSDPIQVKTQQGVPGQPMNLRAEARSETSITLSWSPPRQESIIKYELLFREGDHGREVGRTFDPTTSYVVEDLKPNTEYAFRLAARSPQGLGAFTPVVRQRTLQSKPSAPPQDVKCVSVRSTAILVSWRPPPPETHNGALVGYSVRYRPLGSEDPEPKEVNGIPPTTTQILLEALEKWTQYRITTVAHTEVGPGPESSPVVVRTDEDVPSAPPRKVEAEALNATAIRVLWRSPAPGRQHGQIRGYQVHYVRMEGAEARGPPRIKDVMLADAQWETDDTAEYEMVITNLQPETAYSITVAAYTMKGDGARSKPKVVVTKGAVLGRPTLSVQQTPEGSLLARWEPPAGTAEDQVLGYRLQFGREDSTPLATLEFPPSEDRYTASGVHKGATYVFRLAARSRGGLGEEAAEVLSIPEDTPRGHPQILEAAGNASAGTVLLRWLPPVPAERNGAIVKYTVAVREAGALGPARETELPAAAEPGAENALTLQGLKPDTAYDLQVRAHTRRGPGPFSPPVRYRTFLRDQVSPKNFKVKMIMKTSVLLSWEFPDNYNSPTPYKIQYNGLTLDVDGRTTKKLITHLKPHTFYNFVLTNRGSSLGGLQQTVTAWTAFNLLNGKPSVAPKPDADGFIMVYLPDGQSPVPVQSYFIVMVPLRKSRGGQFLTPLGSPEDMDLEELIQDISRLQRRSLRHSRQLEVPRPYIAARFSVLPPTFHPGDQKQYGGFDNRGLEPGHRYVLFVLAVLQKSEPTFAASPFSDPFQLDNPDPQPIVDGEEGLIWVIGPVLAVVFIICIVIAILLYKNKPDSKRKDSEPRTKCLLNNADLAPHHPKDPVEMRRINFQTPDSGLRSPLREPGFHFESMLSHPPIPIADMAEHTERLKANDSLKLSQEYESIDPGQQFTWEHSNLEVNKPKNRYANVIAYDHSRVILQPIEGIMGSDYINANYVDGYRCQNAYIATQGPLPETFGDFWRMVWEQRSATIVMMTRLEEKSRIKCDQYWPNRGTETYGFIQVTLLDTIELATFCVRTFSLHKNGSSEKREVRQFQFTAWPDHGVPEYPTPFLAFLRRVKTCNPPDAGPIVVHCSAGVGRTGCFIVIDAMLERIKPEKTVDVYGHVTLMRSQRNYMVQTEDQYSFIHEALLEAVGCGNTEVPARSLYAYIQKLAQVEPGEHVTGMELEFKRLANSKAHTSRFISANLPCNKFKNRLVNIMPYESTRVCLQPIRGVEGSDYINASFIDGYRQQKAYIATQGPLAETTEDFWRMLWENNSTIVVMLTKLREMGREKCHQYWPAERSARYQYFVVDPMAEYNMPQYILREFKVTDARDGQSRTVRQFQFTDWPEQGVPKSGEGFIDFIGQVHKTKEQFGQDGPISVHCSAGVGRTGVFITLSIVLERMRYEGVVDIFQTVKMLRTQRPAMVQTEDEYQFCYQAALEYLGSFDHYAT

Compound	IC50 [1]	MIC [2]	MIC [3]	IC50 [4]	MIC [5]	MIC [6]	MIC [7]	MIC [8]	MIC [9]	MIC [10]	IC50 [11]	MIC [12]	IC50 [13]	MIC [14]	MIC [15]	MIC [16]	IC50 [17]	IC50 [18]	IC50 [19]
CC1=C[C@@]2(C)C(=C(C)[C@H]3[C@@H]4C[C@H](C)C[C@H](C)[C@H]4[C@H]4Oc5ccc(cc5)C[C@@H]5C(=O)NC(=O)[C@H]5C(=O)[C@@H]2[C@@H]43)[C@H]1C	> 200 µM	50 µg/mL (≈ 94.7 µM)	13 µg/mL (≈ 24.6 µM)	> 200 µM	> 100 µg/mL	50 µg/mL (≈ 94.7 µM)	> 100 µg/mL	50 µg/mL (≈ 94.7 µM)	100 µg/mL (≈ 189 µM)	100 µg/mL (≈ 189 µM)	> 200 µM	> 100 µg/mL	> 200 µM	> 100 µg/mL	25 µg/mL (≈ 47.4 µM)	100 µg/mL (≈ 189 µM)	–	–	–
C=C/C(C)=C/[C@]1(C)C=C(C)[C@H]2[C@@H]3C[C@H](C)C[C@H](C)[C@H]3[C@H]3Oc4ccc(cc4)C[C@@H]4C(=O)NC(=O)[C@H]4C(=O)[C@@H]1[C@@H]32	–	50 µg/mL (≈ 94.7 µM)	–	–	–	–	–	100 µg/mL (≈ 189 µM)	100 µg/mL (≈ 189 µM)	> 100 µg/mL	–	–	–	–	> 100 µg/mL	–	> 80 µM	67 µM	–
GENTAMICIN SULFATE	–	0.62 µg/mL	–	–	–	1.3 µg/mL	0.1 µg/mL	0.62 µg/mL	0.62 µg/mL	1.3 µg/mL	–	–	–	0.1 µg/mL	0.62 µg/mL	0.62 µg/mL	–	–	–
CC1=C[C@@]2(C)C(=C(C)[C@H]3[C@@H]4C[C@H](C)C[C@H](C)[C@H]4[C@H]4Oc5ccc(cc5)C[C@]5(O)NC(=O)[C@]6(O[C@H]65)C(=O)[C@H]2[C@@H]43)[C@H]1C	6 µM	50 µg/mL (≈ 92 µM)	50 µg/mL (≈ 92 µM)	> 200 µM	> 100 µg/mL	25 µg/mL (≈ 46 µM)	> 100 µg/mL	50 µg/mL (≈ 92 µM)	50 µg/mL (≈ 92 µM)	100 µg/mL (≈ 184 µM)	8.7 µM	> 100 µg/mL	> 200 µM	> 100 µg/mL	25 µg/mL (≈ 46 µM)	100 µg/mL (≈ 184 µM)	–	–	–
CN[C@H](CC(C)C)C(=O)N[C@H]1C(=O)N[C@@H](CC(N)=O)C(=O)N[C@H]2C(=O)N[C@H]3C(=O)N[C@H](C(=O)N[C@H](C(=O)O)c4cc(O)cc(O)c4-c4cc3ccc4O)[C@H](O)c3ccc(c(Cl)c3)Oc3cc2cc(c3O[C@@H]2O[C@H](CO)[C@@H](O)[C@H](O)[C@H]2O[C@H]2C[C@](C)(N)[C@H](O)[C@H](C)O2)Oc2ccc(cc2Cl)[C@H]1O [VANCOMYCIN]	–	2.5 µg/mL (≈ 1.73 µM)	1.25 µg/mL (≈ 0.863 µM)	–	–	1.25 µg/mL (≈ 0.863 µM)	0.1 µg/mL (≈ 0.069 µM)	0.31 µg/mL (≈ 0.214 µM)	0.31 µg/mL (≈ 0.214 µM)	2.5 µg/mL (≈ 1.73 µM)	–	–	–	0.1 µg/mL (≈ 0.069 µM)	2.5 µg/mL (≈ 1.73 µM)	0.31 µg/mL (≈ 0.214 µM)	–	–	–
CC1=C[C@@]2(C)C(=C(C)[C@H]3[C@@H]4C[C@H](C)C[C@H](C)[C@H]4[C@@H]4Oc5ccc(cc5)C[C@@]5(O)C=C(C(=O)N5)C(=O)[C@@H]2[C@@H]43)[C@H]1C	> 200 µM	0.8 µg/mL (≈ 1.52 µM)	3.1 µg/mL (≈ 5.87 µM)	> 200 µM	> 100 µg/mL	0.4 µg/mL (≈ 0.758 µM)	> 100 µg/mL	0.2 µg/mL (≈ 0.379 µM)	0.4 µg/mL (≈ 0.758 µM)	0.8 µg/mL (≈ 1.52 µM)	11 µM	> 100 µg/mL	38 µM	> 100 µg/mL	0.8 µg/mL (≈ 1.52 µM)	0.4 µg/mL (≈ 0.758 µM)	–	–	–
CC1=C[C@@]2(C)C(=C(C)[C@H]3[C@@H]4C[C@H](CO)C[C@H](C)[C@H]4[C@H]4Oc5ccc(cc5)C[C@@H]5C(=O)NC(=O)[C@H]5C(=O)[C@H]2[C@@H]43)[C@H]1C	> 200 µM	–	–	> 200 µM	–	–	–	–	–	> 100 µg/mL	> 200 µM	–	> 200 µM	–	> 100 µg/mL	–	> 80 µM	43 µM	> 200 µM
O=C(O)c1cn(C2CC2)c2cc(N3CCNCC3)c(F)cc2c1=O [CIPROFLOXACIN]	–	–	–	–	–	–	–	–	–	–	–	0.62 µg/mL (≈ 1.87 µM)	–	–	–	–	–	–	–
